Experimental data reported in US10213428B2, “(4-((3R,4R)-3-methoxytetrahydro-pyran-4-ylamino)piperidin-1-yl)(5-methyl-6-(((2R,6S)-6-(p-tolyl)tetrahydro-2H-pyran-2-yl)methylamino)pyrimidin-4-yl)methanone citrate” (Centrexion Therapeutics Corporation, priority 2015, dated 2019).

Columns and labels:
plasma protein [1] = assay: In vitro plasma protein binding (equilibrium dialysis), dog; format: in vitro ADME; conditions: 1.0 μM, dialysis 2 hours at 37° C.
Experimental: (§1) Dianorm Teflon dialysis cells (micro 0.2) are used. Each cell consists of a donor (i.e., buffer chamber) and an acceptor chamber (i.e., plasma chamber), separated by an ultrathin semipermeable membrane with a 5 kDa molecular weight cutoff. Stock solutions for each test compound are prepared in DMSO at 1 mM and diluted to a final concentration of 1.0 μM. Aliquots of 200 μL dialysis buffer (100 mM potassium phosphate, pH 7.4) are dispensed into the buffer chamber. Aliquots of 200 μL test compound dialysis solution are dispensed into the plasma chambers. Incubation is carried out for 2 hours under rotation at 37° C. Then, the dialysate is transferred into reaction tubes. The tubes for the buffer fraction contain 0.2 mL acetonitril/water (80/20 volume/volume). Aliquots of 25 μL of the plasma dialysate are transferred into deep well plates and mixed with 25 μL acetonitril/water (80/20 volume/volume), 25 μL buffer, 25 μL calibration solution and 25 μL Internal Standard solution. Protein precipitation is done by adding 200 μL acetonitrile. Aliquots of 50 μL of the buffer dialysate are transferred into deep well plates and mixed with 25 μL blank plasma, 25 μL Internal Standard solution and 200 μL acetonitril. Percent bound is calculated with the formula: % bound=(plasma concentration−buffer concentration/plasma concentration)×100.

[2] = as above; format: in vitro ADME; conditions: pH 7.4, dialysis 2 hours at 37° C., read-out: Fraction bound (converted)
Experimental: as §1

hepatocytes [3] = assay: In vitro metabolic stability in hepatocyte incubations, rat; format: in vitro ADME; conditions: Rat hepatocytes, 1 μM
Experimental: (§2) Metabolic degradation of the test compound is assayed in a hepatocyte suspension. Hepatocytes are incubated in an appropriate buffer system. Following a (typically) 30 min preincubation in an incubator (37° C., 10% CO2) 5 μL of test compound solution (1 μM) are added into 395 μL hepatocyte suspension (cell density in the range 0.25-5 Mio cells/mL, typically 1 Mio cells/mL, final DMSO concentration 0.05%). The cells are incubated for six hours (incubator, orbital shaker) and samples (25 μL) are taken at 0, 0.5, 1, 2, 4 and 6 hours. Samples are transferred into acetonitrile and pelleted by centrifugation (5 min). The supernatant is transferred to a new 96-deepwell plate, evaporated under nitrogen and resuspended. Decline of parent compound is analyzed by HPLC-MS/MS. CLint is calculated as follows CL_INTRINSIC=Dose/AUC=(CO/CD)/(AUD+clast/k)×1000/60. […]

[4] = as above; format: in vitro ADME; conditions: hepatocytes (suspension); Rat; predicted from hepatocyte CL intrinsic, well stirred model; read-out: CL, in vivo
Experimental: as §2

[5] = Oral pharmacokinetics in mouse; format: in vivo, BALB/c mice; conditions: oral dose 20 μmol/kg
Source text: (§3) The pharmacokinetics of the test compound following single intravenous (IV) or oral (PO) doses were examined in • female BALB/c mice (average weight: 25 g) • male Wistar(Han) rats (average weight: 260 g) • male and female Göttingen Minipigs (average weight: 24 kg) • male beagle dogs (average weight: 15 kg) All non-rodent species were fasted overnight prior to dosing, while mice and rats had food and water available ad libitum. The p.o. dose of the compound was usually administered as suspension in 0.5% Natrosol or as a 0.5% Natrosol/0.015% Tween 80 suspension. For i.v. dosing purposes, the doses were applied as a solution in 0.9% NaCL, or as a solution containing 9.1% HP-beta Cyclodextrin in water.
(§4) Blood was collected by venous sampling and soaking of the blood in EDTA coated tubes. Samples were collected for up to 48 h after administration of the test compound. Plasma was then separated by centrifugation (5 min by approximately 9000 g at 4° C.). For determination of the test compound, plasma was transferred into PCR plates. All samples were stored at approximately −20° C. until bioanalytics. The test compound concentrations in plasma were determined by HPLC MS/MS. The lower limit of quantification was between 0.5 nmol/L and 1 nmol/L.

hepatocytes [6] = assay: In vitro metabolic stability in hepatocyte incubations, minipig; format: in vitro ADME; conditions: Minipig hepatocytes, 1 μM
Experimental: as §2

[7] = as above; format: in vitro ADME; conditions: hepatocytes (suspension); Minipig; predicted from hepatocyte CL intrinsic, well stirred model
Experimental: as §2

[8] = Intravenous pharmacokinetics in dog; format: in vivo, beagle dogs; conditions: IV dose 5 μmol/kg, mean values
Source text: as §3, §4

[9] = Oral pharmacokinetics in rat; format: in vivo, Wistar(Han) rats; conditions: oral dose 20 μmol/kg of compound I
Source text: as §3, §4

[10] = Intravenous pharmacokinetics in minipig; format: in vivo, Göttingen Minipigs; conditions: IV dose 5 μmol/kg, mean values
Source text: as §3, §4

plasma protein [11] = assay: In vitro plasma protein binding (equilibrium dialysis), human; format: in vitro ADME; conditions: 1.0 μM, dialysis 2 hours at 37° C.
Experimental: as §1

[12] = Oral pharmacokinetics in dog; format: in vivo, beagle dogs; conditions: oral dose 5 μmol/kg
Source text: as §3, §4

plasma protein [13] = assay: In vitro plasma protein binding (equilibrium dialysis), rat; format: in vitro ADME; conditions: 1.0 μM, dialysis 2 hours at 37° C.
Experimental: as §1

[14] = as above; format: in vitro ADME; conditions: pH 7.4, dialysis 2 hours at 37° C., read-out: Fraction bound (converted)
Experimental: as §1

[15] = female, BALB/c, plasma, 20 umol/kg, mean values
[16] = male, beagle, plasma, 5 umol/kg
[17] = male, Wistar(Han), plasma, 20 umol/kg, mean values
[18] = both sexes, Göttingen, plasma, 5 umol/kg
[19] = male, beagle, plasma, 5 umol/kg, mean values

CO[C@H]1COCC[C@H]1NC1CCN(C(=O)c2ncnc(NC[C@H]3CCC[C@@H](c4ccc(C)cc4)O3)c2C)CC1 [compound I, (4-((3R,4R)-3-methoxytetrahydro-pyran-4-ylamino)piperidin-1-yl)(5-methyl-6-(((2R,6S)-6-(p-tolyl)tetrahydro-2H-pyran-2-yl)methylamino)pyrimidin-4-yl)methanone]
Fraction unbound (plasma protein [1]): 29.6% | fraction unbound at 2 h, 1 μM [2]: 0.296 | CL intrinsic, in vitro (hepatocytes [3]): 8.77 μL/min/10e6 cells | CLhep predicted at 1 μM [4]: 26 mL/min/kg | AUC(0-inf) [5, 15]: 3.16 µM·h | Cmax [5, 15]: 974 nM | Tmax [5, 15]: 1 h | MRTtot ([5]; mean values): 3.99 h | F ([5]; oral bioavailability): 79% | CL intrinsic, in vitro (hepatocytes [6]): 2.73 μL/min/10e6 cells | predicted in vivo clearance at 1 μM [7]: 6.8 mL/min/kg | MRTdisp [8]: 6.40 h | AUC(0-inf) [8, 16]: 5.99 µM·h | clearance [8, 16]: 14 mL/min/kg | Vd ([8]; male, beagle, plasma, 5 umol/kg, read-out: Vss): 4.94 L/kg | AUC(0-inf) [9, 17]: 2.27 µM·h | Cmax [9, 17]: 580 nM | Tmax [9, 17]: 1.5 h | MRTtot ([9]; mean values): 5.49 h | F ([9]; oral bioavailability): 38% | MRTdisp [10]: 4.15 h | AUC(0-inf) [10, 18]: 4.31 µM·h | clearance [10, 18]: 20 mL/min/kg | Vd ([10]; both sexes, Göttingen, plasma, 5 umol/kg, read-out: Vss): 5.07 L/kg | Fraction unbound (plasma protein [11]): 15.3% | AUC(0-inf) [12, 19]: 1.5 µM·h | Cmax [12, 19]: 317 nM | Tmax [12, 19]: 0.917 h | MRTtot ([12]; mean values): 5.77 h | F ([12]; oral bioavailability): 25% | Fraction unbound (plasma protein [13]): 31.1% | fraction unbound at 2 h, 1 μM [14]: 0.311
